Read-outs that look alike come from different tables or passages of the source.
What was measured:
[1] = test system: Isolated Rat Bladder Strips; assay: Inhibition of Contractions in Isolated Rat Bladder Strips (15 mM KCl-enhanced contractile activity); assay type: tissue-based, Sprague-Dawley rats; details: for IC50: 0.5 h, 15 mM KCl, 37 deg. C., pH 7.4, 30 minute challenge, read-out: IC50 Bladder (B): concentration required to elicit 50% inhibition of pre-drug contractile activity
Experimental: Sprague-Dawley rats (150-200 g) are rendered unconscious by CO2 asphyxiation and then euthanized by cervical dislocation. […] The bladder is opened and then cut into strips 1-2 mm in width and 7-10 mm in length. The strips are subsequently suspended in a 10 mL tissue bath under an initial resting tension of 1.5 g. The strips are held in place by two surgical clips one of which is attached to a fixed hook while the other is attached to an isometric force transducer. […] The carbachol is then washed out and the tissue allowed to relax to its resting level of activity. Following a further 30 min period of recovery an additional 15 mM KCl are introduced into the tissue bath. […] Following stabilization of this enhanced level of contractile activity, incremental increases in the concentration of test compound or vehicle are introduced into the tissue bath. Contractile activity is measured for each compound or vehicle concentration during the last minute of a 30 minute challenge.

Aorta = assay: Inhibition of contractions in aorta (indication of selectivity, Table I); assay type: cell-based; details: for IC50 (A)/IC50 (B): selectivity ratio aorta / bladder

Row | IC50 ([1]; isolated rat bladder strips) | SMILES | IC50 (A)/IC50 (B) (Aorta) | also measured
1 | 11 ± 4.04 µM | O=C(Nc1ccccc1C(=O)O)C1=C(c2ccc(C(F)(F)F)cc2)CCC1 [Example 1, 2-{[2-(4-Trifluoromethyl-phenyl)-cyclopent-1-enecarbonyl]-amino}-benzoic acid] | – | –
2 | – | COc1ccc(/C=C/C(=O)Nc2ccccc2C(=O)O)cc1OC [Tranilast, reference compound] | 1.08 | potency and bladder selectivity as smooth muscle relaxant (in words) ([1]; in vitro, Table 1): not to be a potent or bladder selective smooth muscle relaxant
3 | 11.9 ± 3.95 µM | Cc1noc(-c2ccc(C(F)(F)F)cc2)c1C(=O)Nc1ccccc1C(=O)O [Example 4, 2-{[3-Methyl-5-(4-trifluoromethyl-phenyl)-isoxazole-4-carbonyl]-amino}-benzoic acid] | – | –
4 | – | O=C([O-])c1ccccc1NC(=O)c1ncoc1-c1ccc(C(F)(F)F)cc1.[Li+] [Example 3, 2-{[5-(4-Trifluoromethyl-phenyl)-oxazole-4-carbonyl]-amino}-benzoic acid lithium salt] | 0.42 | IC50 ([1]; Rattus norvegicus, pH 7.4, isolated rat bladder strips): 17.5 ± 12.4 µM; IC50 (Aorta): 7.35 ± 0.25 µM

Row | SMILES | IC50 ([1]; isolated rat bladder strips) | IC50 (A)/IC50 (B) (Aorta) | also measured
5 | O=C(O)c1ccccc1NC(=O)c1ncoc1-c1ccc(C(F)(F)F)cc1 [Example 2, 2-{[5-(4-Trifluoromethyl-phenyl)-oxazole-4-carbonyl]-amino}-benzoic acid] | 17.9 ± 5.8 µM | – | –
